Drawing on the supplement of paper PMC10307832, this text covers relative viability for 6 cell lines.

Common to all, as to test: relative viability (nuclei count vs DMSO), 5 days (fraction); higher = more cells survive
Compound in assay [1]: C1=CC=C2C(=C1)C=CC(=C2SSC3=C(C=CC4=CC=CC=C43)O)O [IPA-3] + CC(=O)c1c(C)c2cnc(Nc3ccc(N4CCNCC4)cn3)nc2n(C2CCCC2)c1=O [Palbociclib] (partner 0.5 µM)
The procedure, abridged: (§1)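 Lung cancer cell lines were pin-tool dosed in 1536-well plates on the day after seeding, with either a lone drug or a fixed anchor-drug dose plus five library-drug doses (not always all listed) in √10 steps. Nuclei were counted on 4× images after 5 days. Relative viability is the ratio of treated-well to vehicle-well nuclei counts, with each value a median of duplicate plates.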

Compound in assay [2]: Cc1ccc(-n2nc(C(C)(C)C)cc2NC(=O)Nc2ccc(OCCN3CCOCC3)c3ccccc23)cc1 [Doramapimod] + NC(=O)Nc1cc(-c2cccc(F)c2)sc1C(=O)N[C@H]1CCCNC1 [AZD7762] (partner 0.2 µM)
The procedure, abridged: as §1

Compound in assay [3]: C1=CC=C2C(=C1)C=CC(=C2SSC3=C(C=CC4=CC=CC=C43)O)O [IPA-3] + Cc1nc(Nc2ncc(C(=O)Nc3c(C)cccc3Cl)s2)cc(N2CCN(CCO)CC2)n1 [Dasatinib] (partner 0.075 µM)
The essentials: as §1

Compound in assay [4]: Cc1ccc(-n2nc(C(C)(C)C)cc2NC(=O)Nc2ccc(OCCN3CCOCC3)c3ccccc23)cc1 [Doramapimod] + COc1cccc2cc(-c3nc([C@H]4CC[C@H](C(=O)O)CC4)n4ncnc(N)c34)[nH]c12 [OSI-027] (partner 0.5 µM)
The procedure, abridged: as §1

As for NCI-H2405, the relative viability in assay [1] (first compound 0.2 µM) amounted to 0.561; in assay [1] (first compound 0.6325 µM), 0.49; in assay [1] (first compound 2 µM), 0.519; in assay [1] (first compound 6.325 µM), 0.529; in assay [1] (first compound 20 µM) it was 0.544; in assay [2] (first compound 0.02 µM), 0.821. The relative viability was 0.746 in assay [2] (first compound 0.06325 µM); 0.758 in assay [2] (first compound 0.2 µM); 0.895 in assay [2] (first compound 0.6325 µM); 0.686 in assay [2] (first compound 2 µM); 0.221 in assay [3] (first compound 0.2 µM); 0.204 in assay [3] (first compound 0.6325 µM). The relative viability was 0.204 in assay [3] (first compound 2 µM); 0.163 in assay [3] (first compound 6.325 µM); 0.211 in assay [3] (first compound 20 µM); 0.654 in assay [4] (first compound 0.02 µM); 0.596 in assay [4] (first compound 0.06325 µM); 0.606 in assay [4] (first compound 0.2 µM). In addition, the relative viability is 0.74 in assay [4] (first compound 0.6325 µM) and 0.598 in assay [4] (first compound 2 µM).

As for NCI-H3122, the relative viability stood at 0.185 in assay [1] (first compound 0.2 µM); 0.174 in assay [1] (first compound 0.6325 µM); 0.176 in assay [1] (first compound 2 µM); 0.219 in assay [1] (first compound 6.325 µM); 0.203 in assay [1] (first compound 20 µM); 1.11 in assay [2] (first compound 0.02 µM). Further, the relative viability was 1.09 in assay [2] (first compound 0.06325 µM); 1.05 in assay [2] (first compound 0.2 µM); 1 in assay [2] (first compound 0.6325 µM); 1.12 in assay [2] (first compound 2 µM); 0.804 in assay [3] (first compound 0.2 µM); 0.751 in assay [3] (first compound 0.6325 µM). Also, the relative viability worked out at 0.847 in assay [3] (first compound 2 µM); 0.919 in assay [3] (first compound 6.325 µM); 0.926 in assay [3] (first compound 20 µM); 0.956 in assay [4] (first compound 0.02 µM); 0.853 in assay [4] (first compound 0.06325 µM); 0.938 in assay [4] (first compound 0.2 µM). Besides, the values for the relative viability in assay [4] (first compound 0.6325 µM) and in assay [4] (first compound 2 µM) were 1.04 and 1.01, respectively.

Take PC-3 [JPC-3]: the relative viability came out at 0.537 in assay [1] (first compound 0.2 µM); 0.541 in assay [1] (first compound 0.6325 µM); 0.538 in assay [1] (first compound 2 µM); 0.531 in assay [1] (first compound 6.325 µM); 0.477 in assay [1] (first compound 20 µM); 1.12 in assay [2] (first compound 0.02 µM). Besides, the relative viability in assay [2] (first compound 0.06325 µM) is 0.912; in assay [2] (first compound 0.2 µM), 0.882; in assay [2] (first compound 0.6325 µM), 0.899; in assay [2] (first compound 2 µM) it was 0.786; in assay [3] (first compound 0.2 µM) it was 1.08; in assay [3] (first compound 0.6325 µM), 1.02. The relative viability was 1.04 in assay [3] (first compound 2 µM); 0.865 in assay [3] (first compound 6.325 µM); 1.01 in assay [3] (first compound 20 µM); 0.845 in assay [4] (first compound 0.02 µM); 0.735 in assay [4] (first compound 0.06325 µM); 0.742 in assay [4] (first compound 0.2 µM). The relative viability in assay [4] (first compound 0.6325 µM) was 0.779; in assay [4] (first compound 2 µM), 0.749.

In the case of PC-14, the relative viability in assay [1] (first compound 0.2 µM) turned out to be 0.648; in assay [1] (first compound 0.6325 µM), 0.324; in assay [1] (first compound 2 µM), 0.512; in assay [1] (first compound 6.325 µM), 0.446; in assay [1] (first compound 20 µM), 0.352; in assay [2] (first compound 0.02 µM) it was 0.521. For the same cell line, the relative viability in assay [2] (first compound 0.06325 µM) amounted to 0.539; in assay [2] (first compound 0.2 µM), 0.353; in assay [2] (first compound 0.6325 µM), 0.378; in assay [2] (first compound 2 µM) it was 0.325; in assay [3] (first compound 0.2 µM), 0.29; in assay [3] (first compound 0.6325 µM), 0.278. The relative viability in assay [3] (first compound 2 µM) turned out to be 0.271; in assay [3] (first compound 6.325 µM), 0.268; in assay [3] (first compound 20 µM), 0.309; in assay [4] (first compound 0.02 µM) it was 0.933; in assay [4] (first compound 0.06325 µM) it was 0.671; in assay [4] (first compound 0.2 µM) it was 0.872. The relative viability in assay [4] (first compound 0.6325 µM) is 1.01; in assay [4] (first compound 2 µM) it was 0.635.

For RERF-LC-KJ, the relative viability in assay [1] (first compound 0.2 µM) stood at 1.19; in assay [1] (first compound 0.6325 µM), 1.04; in assay [1] (first compound 2 µM) it was 1.08; in assay [1] (first compound 6.325 µM), 1.16; in assay [1] (first compound 20 µM), 0.826; in assay [2] (first compound 0.02 µM), 0.897. Also, the relative viability is 1.15 in assay [2] (first compound 0.06325 µM); 0.961 in assay [2] (first compound 0.2 µM); 0.703 in assay [2] (first compound 0.6325 µM); 0.889 in assay [2] (first compound 2 µM); 0.983 in assay [3] (first compound 0.2 µM); 0.729 in assay [3] (first compound 0.6325 µM). The relative viability was determined as 0.837 in assay [3] (first compound 2 µM); 0.759 in assay [3] (first compound 6.325 µM); 0.789 in assay [3] (first compound 20 µM); 0.624 in assay [4] (first compound 0.02 µM); 0.543 in assay [4] (first compound 0.06325 µM); 0.603 in assay [4] (first compound 0.2 µM). In addition, the relative viability in assay [4] (first compound 0.6325 µM) is 0.6; in assay [4] (first compound 2 µM) it was 0.554.

Turning to SW 900, the relative viability came to 0.536 in assay [1] (first compound 0.2 µM); 0.518 in assay [1] (first compound 0.6325 µM); 0.545 in assay [1] (first compound 2 µM); 0.49 in assay [1] (first compound 6.325 µM); 0.587 in assay [1] (first compound 20 µM); 0.569 in assay [2] (first compound 0.02 µM). The relative viability stood at 0.72 in assay [2] (first compound 0.06325 µM); 0.551 in assay [2] (first compound 0.2 µM); 0.76 in assay [2] (first compound 0.6325 µM); 0.486 in assay [2] (first compound 2 µM); 0.74 in assay [3] (first compound 0.2 µM); 0.703 in assay [3] (first compound 0.6325 µM). Further, the relative viability was found to be 0.667 in assay [3] (first compound 2 µM); 0.781 in assay [3] (first compound 6.325 µM); 0.543 in assay [3] (first compound 20 µM); 0.547 in assay [4] (first compound 0.02 µM); 0.579 in assay [4] (first compound 0.06325 µM); 0.858 in assay [4] (first compound 0.2 µM). The relative viability in assay [4] (first compound 0.6325 µM) came to 0.599; in assay [4] (first compound 2 µM), 0.523.
